Experimental data published in patent US11498899B2, “Nitrone herbicides” (FMC Corporation, priority 2016, dated 2022).

How the values were obtained:
[1] = tested on: barnyardgrass (Echinochloa crus-galli); experiment: Test B flooded paddy test, visual rating 0-100; conditions: Flood, 250 g ai/ha, applied to paddy water, rated after 13 to 15 days
[2] = tested on: blackgrass (Alopecurus myosuroides); experiment: Test A postemergence, visual injury rating 0-100; type: in vivo; conditions: 0 to 100 scale
[3] = tested on: barnyardgrass (Echinochloa crus-galli); experiment: Test A postemergence, visual injury rating 0-100; type: in vivo; conditions: 0 to 100 scale
[4] = tested on: pigweed (Amaranthus retroflexus); experiment: Test A postemergence, visual injury rating 0-100; type: in vivo; conditions: 0 to 100 scale
[5] = tested on: wheat (Triticum aestivum); experiment: Test A postemergence, visual injury rating 0-100; type: in vivo; conditions: 0 to 100 scale
kochia (Kochia scoparia) [6] = experiment: Test A postemergence, visual injury rating 0-100; type: in vivo; conditions: 0 to 100 scale
corn (Zea mays) = experiment: Test A postemergence, visual injury rating 0-100; type: in vivo; conditions: 0 to 100 scale
[7] = tested on: ryegrass, Italian (Italian ryegrass, Lolium multiflorum); experiment: Test A postemergence, visual injury rating 0-100; type: in vivo; conditions: 0 to 100 scale
[8] = tested on: galium (catchweed bedstraw, Galium aparine); experiment: Test A postemergence, visual injury rating 0-100; type: in vivo; conditions: 0 to 100 scale
[9] = tested on: ragweed (common ragweed, Ambrosia elatior); experiment: Test A postemergence, visual injury rating 0-100; type: in vivo; conditions: 0 to 100 scale
[10] = tested on: foxtail, green (green foxtail, Setaria viridis); experiment: Test A postemergence, visual injury rating 0-100; type: in vivo; conditions: 0 to 100 scale
[11] = tested on: pigweed (Amaranthus retroflexus); experiment: Test A preemergence, visual injury rating 0-100; type: in vivo; conditions: for Pigweed plant response rating: 31 g ai/ha, 0 to 100 scale (0 no effect, 100 complete control), approx. 10 days; for Pigweed plant response rating (0 to 100 scale): 125 g ai/ha
kochia (Kochia scoparia) [12] = experiment: Test A preemergence, visual injury rating 0-100; type: in vivo; conditions: for Kochia plant response rating: 31 g ai/ha, 0 to 100 scale (0 no effect, 100 complete control), approx. 10 days; for Kochia plant response rating (0 to 100 scale): 125 g ai/ha
[13] = tested on: ryegrass, Italian (Italian ryegrass, Lolium multiflorum); experiment: Test A preemergence, visual injury rating 0-100; type: in vivo; conditions: for Ryegrass, Italian plant response rating: 31 g ai/ha, 0 to 100 scale (0 no effect, 100 complete control), approx. 10 days; for Ryegrass, Italian plant response rating (0 to 100 scale): 125 g ai/ha
[14] = tested on: ragweed (common ragweed, Ambrosia elatior); experiment: Test A preemergence, visual injury rating 0-100; type: in vivo; conditions: for Ragweed plant response rating: 31 g ai/ha, 0 to 100 scale (0 no effect, 100 complete control), approx. 10 days; for Ragweed plant response rating (0 to 100 scale): 125 g ai/ha
[15] = tested on: foxtail, green (green foxtail, Setaria viridis); experiment: Test A preemergence, visual injury rating 0-100; type: in vivo; conditions: for Foxtail, Green plant response rating: 31 g ai/ha, 0 to 100 scale (0 no effect, 100 complete control), approx. 10 days; for Foxtail, Green plant response rating (0 to 100 scale): 125 g ai/ha
rice (Oryza sativa) = experiment: Test B flooded paddy test, visual rating 0-100 (0 no effect, 100 complete control); conditions: Flood, 250 g ai/ha, applied to paddy water, rated after 13 to 15 days
[16] = tested on: ducksalad (Heteranthera limosa); experiment: Test B flooded paddy test, visual rating 0-100; conditions: Flood, 250 g ai/ha, applied to paddy water, rated after 13 to 15 days
[17] = tested on: barnyardgrass (Echinochloa crus-galli); experiment: Test A preemergence, visual injury rating 0-100 (0 no effect, 100 complete control); type: in vivo; conditions: for Barnyardgrass plant response rating: 31 g ai/ha, 0 to 100 scale (0 no effect, 100 complete control), approx. 10 days; for Barnyardgrass plant response rating (0 to 100 scale): 125 g ai/ha

Structure (SMILES) | Barnyardgrass plant response rating (0 to 100 scale) [1] | Blackgrass plant response rating ([2]; 31 g ai/ha) | Blackgrass plant response rating ([2]; 125 g ai/ha) | Barnyardgrass plant response rating ([3]; 31 g ai/ha) | Barnyardgrass plant response rating ([3]; 125 g ai/ha) | Pigweed plant response rating ([4]; 31 g ai/ha) | Pigweed plant response rating ([4]; 125 g ai/ha) | Wheat plant response rating ([5]; 31 g ai/ha) | Wheat plant response rating ([5]; 125 g ai/ha) | Kochia plant response rating (kochia (Kochia scoparia) [6]; 31 g ai/ha) | Kochia plant response rating (kochia (Kochia scoparia) [6]; 125 g ai/ha) | Corn plant response rating (corn (Zea mays); 31 g ai/ha) | Corn plant response rating (corn (Zea mays); 125 g ai/ha) | Ryegrass, Italian plant response rating ([7]; 31 g ai/ha) | Ryegrass, Italian plant response rating ([7]; 125 g ai/ha) | Galium plant response rating ([8]; 31 g ai/ha) | Galium plant response rating ([8]; 125 g ai/ha) | Ragweed plant response rating ([9]; 31 g ai/ha) | Ragweed plant response rating ([9]; 125 g ai/ha) | Foxtail, Green plant response rating ([10]; 31 g ai/ha) | further results
CC1=[N+]([O-])[C@H](C(=O)Nc2cccc(F)c2F)[C@@H](c2ccc(C(F)(F)F)cc2)C1 [Compound 30, (2S,3R)—N-(2,3-difluorophenyl)-3,4-dihydro-5-methyl-3-[4-(trifluoromethyl)phenyl]-2H-pyrrole-2-carboxamide 1-oxide] | 85 | 30 | 60 | 30 | 70 | 20 | 30 | 40 | 50 | 0 | 0 | 0 | 70 | 20 | 50 | 50 | 50 | 0 | 40 | 30 | Foxtail, Green plant response rating ([10]; 125 g ai/ha): 80; Pigweed plant response rating [11]: 0; Pigweed plant response rating (0 to 100 scale) [11]: 90; Kochia plant response rating (kochia (Kochia scoparia) [12]): 0; Kochia plant response rating (0 to 100 scale) (kochia (Kochia scoparia) [12]): 80; Ryegrass, Italian plant response rating [13]: 0; Ryegrass, Italian plant response rating (0 to 100 scale) [13]: 90; Ragweed plant response rating [14]: 30; Ragweed plant response rating (0 to 100 scale) [14]: 90; Foxtail, Green plant response rating [15]: 100; Foxtail, Green plant response rating (0 to 100 scale) [15]: 100; melting point: 113 to 117 °C; Rice plant response rating (0 to 100 scale) (rice (Oryza sativa)): 50; Ducksalad plant response rating (0 to 100 scale) [16]: 100; Barnyardgrass plant response rating [17]: 100; Barnyardgrass plant response rating (0 to 100 scale) [17]: 100
CC1=[N+]([O-])[C@@H](C(=O)Nc2cccc(F)c2F)[C@H](c2ccc(F)c(F)c2)C1 [Compound 39] | 90 | 0 | 50 | 0 | 60 | 0 | 0 | 0 | 50 | 0 | 0 | 0 | 10 | 0 | 10 | 0 | 10 | 0 | 0 | 10 | Foxtail, Green plant response rating ([10]; 125 g ai/ha): 70; Pigweed plant response rating [11]: 0; Pigweed plant response rating (0 to 100 scale) [11]: 30; Kochia plant response rating (kochia (Kochia scoparia) [12]): 0; Kochia plant response rating (0 to 100 scale) (kochia (Kochia scoparia) [12]): 30; Ryegrass, Italian plant response rating [13]: 20; Ryegrass, Italian plant response rating (0 to 100 scale) [13]: 10; Ragweed plant response rating [14]: 0; Ragweed plant response rating (0 to 100 scale) [14]: 100; Foxtail, Green plant response rating [15]: 100; Foxtail, Green plant response rating (0 to 100 scale) [15]: 100; Rice plant response rating (0 to 100 scale) (rice (Oryza sativa)): 10; Ducksalad plant response rating (0 to 100 scale) [16]: 100; Barnyardgrass plant response rating [17]: 100; Barnyardgrass plant response rating (0 to 100 scale) [17]: 100
CC1=[N+]([O-])[C@H](C(=O)Nc2cccc(F)c2F)[C@@H](c2ccc(Cl)cc2)C1 [Compound 40, (2S,3R)-3-(4-chlorophenyl)-N-(2,3-difluorophenyl)-3,4-dihydro-5-methyl-2H-pyrrole-2-carboxamide 1-oxide] | 80 | 0 | 60 | 80 | 90 | 0 | 0 | 0 | 10 | 0 | 0 | 20 | 30 | 0 | 20 | 10 | 60 | 0 | 0 | 40 | Foxtail, Green plant response rating ([10]; 125 g ai/ha): 80; Pigweed plant response rating [11]: 0; Pigweed plant response rating (0 to 100 scale) [11]: 80; Kochia plant response rating (kochia (Kochia scoparia) [12]): 0; Kochia plant response rating (0 to 100 scale) (kochia (Kochia scoparia) [12]): 80; Ryegrass, Italian plant response rating [13]: 0; Ryegrass, Italian plant response rating (0 to 100 scale) [13]: 10; Ragweed plant response rating [14]: 20; Ragweed plant response rating (0 to 100 scale) [14]: 80; Foxtail, Green plant response rating [15]: 100; Foxtail, Green plant response rating (0 to 100 scale) [15]: 100; Rice plant response rating (0 to 100 scale) (rice (Oryza sativa)): 25; Ducksalad plant response rating (0 to 100 scale) [16]: 95; Barnyardgrass plant response rating [17]: 100; Barnyardgrass plant response rating (0 to 100 scale) [17]: 100
CC1=[N+]([O-])[C@H](C(=O)Nc2cccc(F)c2F)[C@@H](c2ccc(C)cc2)C1 [Compound 42, (2S,3R)—N-(2,3-Difluorophenyl)-3,4-dihydro-5-methyl-3-(4-methylphenyl)-2H-pyrrole-2-carboxamide 1-oxide] | 90 | 80 | 80 | 50 | 90 | 0 | 20 | 20 | 80 | 0 | 30 | 20 | 50 | 0 | 30 | 40 | 60 | 0 | 30 | 50 | Foxtail, Green plant response rating ([10]; 125 g ai/ha): 90; Pigweed plant response rating [11]: 0; Pigweed plant response rating (0 to 100 scale) [11]: 80; Kochia plant response rating (kochia (Kochia scoparia) [12]): 0; Kochia plant response rating (0 to 100 scale) (kochia (Kochia scoparia) [12]): 90; Ryegrass, Italian plant response rating [13]: 0; Ryegrass, Italian plant response rating (0 to 100 scale) [13]: 80; Ragweed plant response rating [14]: 0; Ragweed plant response rating (0 to 100 scale) [14]: 70; Foxtail, Green plant response rating [15]: 100; Foxtail, Green plant response rating (0 to 100 scale) [15]: 100; Rice plant response rating (0 to 100 scale) (rice (Oryza sativa)): 30; Ducksalad plant response rating (0 to 100 scale) [16]: 100; Barnyardgrass plant response rating [17]: 100; Barnyardgrass plant response rating (0 to 100 scale) [17]: 100
CC1=[N+]([O-])[C@@H](C(=O)Nc2cccc(F)c2F)[C@H](c2cccc(C(F)(F)F)c2)C1 [Compound 45] | 75 | 20 | 60 | 10 | 50 | 0 | 20 | 30 | 60 | 0 | 0 | 40 | 50 | 10 | 40 | 20 | 30 | 0 | 0 | 30 | Foxtail, Green plant response rating ([10]; 125 g ai/ha): 80; Pigweed plant response rating [11]: 0; Pigweed plant response rating (0 to 100 scale) [11]: 0; Kochia plant response rating (kochia (Kochia scoparia) [12]): 0; Kochia plant response rating (0 to 100 scale) (kochia (Kochia scoparia) [12]): 20; Ryegrass, Italian plant response rating [13]: 10; Ryegrass, Italian plant response rating (0 to 100 scale) [13]: 80; Ragweed plant response rating [14]: 0; Ragweed plant response rating (0 to 100 scale) [14]: 80; Foxtail, Green plant response rating [15]: 90; Foxtail, Green plant response rating (0 to 100 scale) [15]: 100; Rice plant response rating (0 to 100 scale) (rice (Oryza sativa)): 0; Ducksalad plant response rating (0 to 100 scale) [16]: 95; Barnyardgrass plant response rating [17]: 40; Barnyardgrass plant response rating (0 to 100 scale) [17]: 100
